According to ChEMBL document CHEMBL4665677, “Recent Advances of SHP2 Inhibitors in Cancer Therapy: Current Development and Clinical Application” (J Med Chem, 2020):

Legend:
[1] = target: T1, Tyrosine-protein phosphatase non-receptor type 11 (Homo sapiens, UniProt Q06124); assay: Allosteric inhibition of [IRSl_pY1172(dPEG8)pY1222] peptide-activated SHP2 (unknown origin) using DiFMUP as substrate preincubated for 30 to 60 mins followed by substrate addition and measured after 30 mins by fluorescence method
T1 sequence (Q06124 whole entry): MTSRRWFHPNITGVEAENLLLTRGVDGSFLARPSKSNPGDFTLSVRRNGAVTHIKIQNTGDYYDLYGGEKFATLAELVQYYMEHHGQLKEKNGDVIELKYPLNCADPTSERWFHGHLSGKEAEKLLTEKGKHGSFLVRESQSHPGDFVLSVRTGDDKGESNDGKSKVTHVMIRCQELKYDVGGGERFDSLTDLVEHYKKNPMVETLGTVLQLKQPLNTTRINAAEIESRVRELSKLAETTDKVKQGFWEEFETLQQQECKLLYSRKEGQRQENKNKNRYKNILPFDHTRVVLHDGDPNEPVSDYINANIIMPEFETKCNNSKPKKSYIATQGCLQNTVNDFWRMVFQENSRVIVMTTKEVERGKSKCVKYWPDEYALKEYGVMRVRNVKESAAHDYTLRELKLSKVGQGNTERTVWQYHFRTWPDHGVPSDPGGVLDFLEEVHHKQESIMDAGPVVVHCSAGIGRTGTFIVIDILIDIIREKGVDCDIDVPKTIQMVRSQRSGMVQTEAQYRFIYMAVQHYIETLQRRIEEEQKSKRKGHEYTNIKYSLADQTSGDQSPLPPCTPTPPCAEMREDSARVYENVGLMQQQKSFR

[2] = target: T2, Tyrosine-protein phosphatase non-receptor type 1 (Homo sapiens, UniProt P18031); assay: Inhibition of N-terminal His6-tagged TEV cleavage site-fused human PTP1B (2 to 297 residues) expressed in Escherichia coli BL21(DE3)RILcodon+ or BL21(DE3)RPcodon+ using 4-nitrophenylphosphate as substrate
T2 sequence (P18031 whole entry): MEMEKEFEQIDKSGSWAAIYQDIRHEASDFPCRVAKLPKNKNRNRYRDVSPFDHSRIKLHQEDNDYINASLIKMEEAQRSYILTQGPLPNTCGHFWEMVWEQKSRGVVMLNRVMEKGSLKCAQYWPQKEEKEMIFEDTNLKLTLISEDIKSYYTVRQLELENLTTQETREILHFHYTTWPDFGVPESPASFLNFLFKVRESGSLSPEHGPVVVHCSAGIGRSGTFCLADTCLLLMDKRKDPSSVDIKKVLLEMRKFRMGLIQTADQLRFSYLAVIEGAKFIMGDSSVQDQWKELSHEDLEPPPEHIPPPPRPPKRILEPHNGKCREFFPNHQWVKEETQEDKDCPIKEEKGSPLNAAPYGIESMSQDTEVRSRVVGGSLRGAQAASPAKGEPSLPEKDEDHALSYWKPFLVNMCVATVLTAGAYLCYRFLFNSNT

[3] = target: T3, Tyrosine-protein phosphatase non-receptor type 6 (Homo sapiens, UniProt P29350); assay: Inhibition of N-terminal His6-tagged TEV cleavage site-fused human SHP1 (222 to 535 residues) expressed in Escherichia coli BL21(DE3)RILcodon+ or BL21(DE3)RPcodon+ using 4-nitrophenylphosphate as substrate
T3 sequence (P29350 whole entry, the tested form may be a part): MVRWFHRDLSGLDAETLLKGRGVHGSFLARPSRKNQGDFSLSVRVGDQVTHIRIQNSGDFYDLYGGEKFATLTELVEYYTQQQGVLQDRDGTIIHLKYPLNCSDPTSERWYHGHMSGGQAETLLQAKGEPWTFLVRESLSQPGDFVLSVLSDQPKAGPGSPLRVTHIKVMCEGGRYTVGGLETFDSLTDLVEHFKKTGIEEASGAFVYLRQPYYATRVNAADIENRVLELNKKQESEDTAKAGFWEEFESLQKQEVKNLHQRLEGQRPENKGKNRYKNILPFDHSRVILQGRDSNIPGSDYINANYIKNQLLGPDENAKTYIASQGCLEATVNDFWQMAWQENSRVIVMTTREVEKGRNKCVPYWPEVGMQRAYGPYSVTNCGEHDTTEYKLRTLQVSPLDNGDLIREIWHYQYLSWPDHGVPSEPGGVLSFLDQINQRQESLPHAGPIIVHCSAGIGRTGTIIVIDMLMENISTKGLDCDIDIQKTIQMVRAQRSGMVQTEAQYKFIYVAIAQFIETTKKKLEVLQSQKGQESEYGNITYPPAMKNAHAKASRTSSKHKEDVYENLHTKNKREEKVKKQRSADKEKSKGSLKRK

[4] = target: T1, Tyrosine-protein phosphatase non-receptor type 11; assay: Allosteric inhibition of full length N-terminal His6-tagged human SHP2 (2 to 593 residues) expressed in Escherichia coli using DiFMUP as substrate in presence of activating peptide preincubated for 60 mins followed by substrate addition amd measured after 30 mins by fluorescence method
[5] = target: T3, Tyrosine-protein phosphatase non-receptor type 6; assay: Inhibition of recombinant His6-fused SHP1 catalytic domain (unknown origin) using p-nitrophenyl phosphate as substrate by spectrophotometric analysis
[6] = target: T4, Tyrosine-protein phosphatase non-receptor type 11 (Homo sapiens) (UniProt Q06124); assay: Allosteric inhibition of dPEG8 peptide-activated SHP2 (unknown origin) using DiFMUP as substrate at 100 nM preincubated for 30 followed by substrate addition and measured after 30 mins by fluorescence method relative to control
T4 sequence (whole entry): T1 sequence (Q06124 whole entry)

[7] = target: T2, Tyrosine-protein phosphatase non-receptor type 1; assay: Inhibition of PTP1B (unknown origin) using 6,8-difluoro-4-methylum-belliferylphosphate as substrate preincubated for 1 hr followed by substrate by fluorescence method
[8] = target: T1, Tyrosine-protein phosphatase non-receptor type 11; assay: Inhibition of N-terminal His6-tagged TEV cleavage site-fused human SHP2 catalytic domain (248 to 527 residues) expressed in Escherichia coli Rosetta(DE3) using 6,8-difluoro-4-methylum-belliferylphosphate as substrate preincubated for 1 hr followed by substrate addition by fluorescence method
[9] = target: T3, Tyrosine-protein phosphatase non-receptor type 6; assay: Inhibition of SHP1 (unknown origin) using 6,8-difluoro-4-methylum-belliferylphosphate as substrate preincubated for 1 hr followed by substrate by fluorescence method
[10] = target: T3, Tyrosine-protein phosphatase non-receptor type 6; assay: Inhibition of His6-fused human SHP1 catalytic domain expressed in Escherichia coli cells using DiFMUP as substrate preincubated for 30 followed by substrate addition and by fluorescence method
[11] = target: T2, Tyrosine-protein phosphatase non-receptor type 1; assay: Inhibition of His6-fused human PTP1B expressed in Escherichia coli cells using DiFMUP as substrate preincubated for 30 followed by substrate addition and by fluorescence method
[12] = target: T3, Tyrosine-protein phosphatase non-receptor type 6; assay: Inhibition of His6-fused human full length SHP1 expressed in Escherichia coli cells using DiFMUP as substrate preincubated for 30 mins followed by substrate addition and by fluorescence method
[13] = target: T1, Tyrosine-protein phosphatase non-receptor type 11; assay: Allosteric inhibition of full-length His6-tagged human SHP2 (2 to 527 residues) expressed in Escherichia coli using DiFMUP as substrate in presence of activating peptide (LN(pY)IDLDLV(dPEG8)LST(pY)ASINFQK-amide) by fluorescence method
[14] = target: T1, Tyrosine-protein phosphatase non-receptor type 11; assay: Allosteric inhibition of dPEG8 peptide-activated SHP2 (unknown origin) using DiFMUP as substrate preincubated for 30 followed by substrate addition and measured after 30 mins by fluorescence method
MeWo = assay: Antitumor activity against human MeWo cells xenografted in NSG (NOD/scid/IL2Rgnull) mouse assessed as reduction in tumor volume at 15 mg/kg, ip administered once daily for 21 days; format: functional; set-up: scale not given: the % may be the effect or the level left; conditions: time 21 day
[15] = target: Tyrosine-protein phosphatase non-receptor type 11 (Homo sapiens, UniProt Q06124, Q257L/T253M); assay: Inhibition of SHP2 T253M/Q257L double mutant (unknown origin)
Tyrosine-protein phosphatase non-receptor type 11 (Homo sapiens, UniProt Q06124, Q257L/T253M), sequence (Q06124 2-593 T253M/Q257L limits assumed): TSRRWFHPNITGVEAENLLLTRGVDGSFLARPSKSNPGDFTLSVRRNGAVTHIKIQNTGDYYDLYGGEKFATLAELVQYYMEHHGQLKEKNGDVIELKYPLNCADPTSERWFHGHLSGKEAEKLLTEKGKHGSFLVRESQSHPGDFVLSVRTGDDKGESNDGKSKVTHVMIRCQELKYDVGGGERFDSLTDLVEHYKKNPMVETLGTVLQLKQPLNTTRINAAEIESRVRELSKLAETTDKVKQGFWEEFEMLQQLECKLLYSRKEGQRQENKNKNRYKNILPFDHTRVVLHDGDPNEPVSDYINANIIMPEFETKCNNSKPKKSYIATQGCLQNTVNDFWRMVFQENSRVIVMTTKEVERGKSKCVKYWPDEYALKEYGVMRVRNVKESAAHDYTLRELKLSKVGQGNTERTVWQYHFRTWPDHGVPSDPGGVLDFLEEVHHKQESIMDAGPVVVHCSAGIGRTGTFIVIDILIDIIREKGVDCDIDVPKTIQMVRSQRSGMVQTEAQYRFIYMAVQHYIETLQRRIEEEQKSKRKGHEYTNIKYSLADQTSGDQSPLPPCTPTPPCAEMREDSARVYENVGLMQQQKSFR

[16] = target: T1, Tyrosine-protein phosphatase non-receptor type 11; assay: Inhibition of SHP2 PTP domain (unknown origin)
[17] = Antitumor activity against human LXFA526L cells xenografted in NMRI nu/nu mouse assessed as induction of tumor regression at 46 mg/kg, ip administered once daily and measured on day 27 relative to control; format: functional; conditions: time 27 day
[18] = target: T1, Tyrosine-protein phosphatase non-receptor type 11; assay: Allosteric inhibition of SHP2 (unknown origin) using DiFMUP as substrate preincubated for 60 mins in presence of activating peptide IRS-1 followed by substrate addition and measured after 60 mins by fluorescence method
[19] = target: T1, Tyrosine-protein phosphatase non-receptor type 11; assay: Allosteric inhibition of IRS1_pY1172(dPEG8)pY1222 activated-human full length SHP2 (Met1 to Leu525 residues) expressed in Escherichia coli BL21 Star (DE3) cells using DiFMUP as substrate preincubated for 30 to 60 mins followed by substrate addition and measured after 30 mins by fluorescence method

For `Nc1nc(N2CCC3(CCC[C@H]3N)CC2)cnc1-c1cccc(Cl)c1Cl`, the IC50 [1] was 70 nM.

Work on `CCOC(=O)c1ccc(N2N=C(c3ccc([N+](=O)[O-])cc3)/C(=N/Nc3ccc(S(=O)(=O)O)cc3)C2=O)cc1` yielded an IC50 [2] of 2100 nM and an IC50 [3] of 1800 nM.

`CC1(N)CCN(c2nc3sc(-c4cccc(Cl)c4Cl)nn3c2CO)CC1` gave an IC50 [4] of 22.3 nM.

In the case of `NC(=O)[C@H](Cc1ccc(C(F)(F)P(=O)(O)O)cc1)NC(=O)[C@H](CC(=O)O)NC(=O)Cc1ccc(C(F)(F)P(=O)(O)O)cc1`, the IC50 [5] is reported as 11000 nM.

`Nc1nc(N2CCC3(CC2)Cc2ncsc2[C@H]3N)cnc1Sc1ccnc(N)c1Cl` showed an inhibition ([6]; filed as negative allosteric modulator) of 49%.

Work on `O=C1/C(=N\Nc2ccc(S(=O)(=O)O)cc2)C(c2ccc([N+](=O)[O-])cc2)=NN1c1ccc(Cl)cc1` yielded an IC50 [7] of 8930 nM, an IC50 [8] of 1160 nM and an IC50 [9] of 10200 nM.

In the case of `Cc1nc(N2CCC3(CC2)CO[C@@H](C)[C@H]3N)c(CO)nc1-c1cccc(Cl)c1Cl`, the IC50 [10] is reported as greater than 10000 nM, the IC50 [11] is reported as greater than 10000 nM and the IC50 [12] is reported as greater than 10000 nM.

Work on `C[C@@H]1OCC2(CCC(c3cnc4nc(Sc5ccnc(N6CCCC6)c5Cl)ccc4n3)CC2)[C@@H]1N` (some centres undefined) yielded an IC50 [13] of 100 nM.

`Nc1nc(N2CCC3(CC2)Cc2ccncc2[C@H]3N)cnc1Sc1ccnc(N)c1Cl` showed an IC50 [14] of 7 nM.

`Nc1nc(N2CCC3(CC2)c2ncccc2C[C@H]3N)cnc1Sc1ccnc(N)c1Cl` gave an inhibition [6] of 20%.

Work on `O=C(Nc1ccc(-c2cc[nH]c2)cc1)C(=O)Nc1cccc(-c2[nH]c3cc(O)c(C(=O)O)cc3c2I)c1` yielded an Activity (MeWo) of 52%.

Molecule `COc1ccc(N2N=C(c3ccc([N+](=O)[O-])cc3)/C(=N/Nc3ccc(S(=O)(=O)O)cc3)C2=O)cc1` has an IC50 [7] of 6800 nM, an IC50 [8] of 500 nM and an IC50 [9] of 2140 nM.

Work on `CC1(N)CCN(c2cnc3c(-c4cccc(Cl)c4Cl)n[nH]c3c2)CC1` yielded an IC50 [4] of 17.9 nM.

`O=C1/C(=N\Nc2ccc(S(=O)(=O)O)cc2)C(c2ccc([N+](=O)[O-])cc2)=NN1c1ccc(C(F)(F)F)cc1` gave an IC50 [7] of 10600 nM, an IC50 [8] of 940 nM and an IC50 [9] of 14400 nM.

For `COc1cccc(-c2nnc3n(Cc4ccccc4Cl)c(=O)c4ccccc4n23)c1O`, the IC50 [15] was 68000 nM and the IC50 [16] was greater than 100000 nM.

With `O=C1/C(=N\Nc2ccc(S(=O)(=O)O)cc2)C(c2ccc([N+](=O)[O-])cc2)=NN1c1ccc([N+](=O)[O-])cc1` the IC50 [7] was 3170 nM, the IC50 [8] was 70 nM and the Activity [17] was 42.6%. It also gave an IC50 [9] of 2080 nM.

`Nc1nc(N2CCC3(CC2)Cc2cnccc2[C@H]3N)cnc1Sc1ccnc(N)c1Cl` gave an IC50 [14] of 3 nM.

`CC1(CN)CCN(c2ncc(Sc3cccc(Cl)c3Cl)[nH]c2=O)CC1` showed an IC50 [18] of less than 50 nM.

In the case of `COc1cccc(-c2nnc3n(Cc4ccc(C(=O)N5CCC[C@H]5C(=O)O)cc4Cl)c(=O)c4ccccc4n23)c1O`, the IC50 [16] is reported as greater than 100000 nM.

Molecule `Cc1ccc(N2N=C(c3ccc([N+](=O)[O-])cc3)/C(=N/Nc3ccc(S(=O)(=O)O)cc3)C2=O)cc1` has an IC50 [7] of 6560 nM, an IC50 [8] of 410 nM and an IC50 [9] of 9830 nM.

With `O=c1c2ccccc2n2c(-c3ccccc3O)nnc2n1Cc1ccccc1Cl` the IC50 [19] was greater than 100000 nM and the IC50 [16] was greater than 100000 nM.

With `O=C(O)c1ccc(O)c(-c2nnc3n(Cc4ccccc4Cl)c(=O)c4ccccc4n23)c1` the IC50 [16] was greater than 100000 nM.

`Nc1nc(N2CCC3(CC2)Cc2ncccc2[C@H]3N)cnc1Sc1ccnc(N)c1Cl` showed an inhibition [6] of 30%.
